Values of other authors in US20210290592A1, “COMPOSITION AND METHOD FOR OPIOID SPARING” (Zelira Therapeutics Operations Pty Ltd., priority 2018, published 2021).

Conditions: treatment group, 5 mg THC, n=105; 74 mg in control group, difference not statistically significant

Structure (SMILES): CCCCCc1cc(O)c2c(c1)OC(C)(C)[C@@H]1CCC(C)=C[C@@H]21 [dronabinol]
- Median dose of micro-opioid agonist piritramide in the two days post surgery: 54 mg
